According to US5607931A, “1,2-disubstituted ethly amides as inhibitors of ACAT” (Schering Corporation, priority 1995, dated 1997):

Legend:
ACAT = molecular target: T1, ACAT (Rattus norvegicus, UniProt Q7TQM4); assay: ACAT Assay (in vitro), transfer of tritiated oleic acid from acyl-CoA to cholesterol, rat liver microsomes; format: biochemical; settings: for inhibition at 10 µM: read-out: % ACAT Inhib. @10 μM; for IC50: 0.1 to 25 μM
T1 construct: Rat liver microsomes are used as the source of ACAT; from tissue; host or cells: rat liver microsomes
T1 sequence (Q7TQM4 1-524): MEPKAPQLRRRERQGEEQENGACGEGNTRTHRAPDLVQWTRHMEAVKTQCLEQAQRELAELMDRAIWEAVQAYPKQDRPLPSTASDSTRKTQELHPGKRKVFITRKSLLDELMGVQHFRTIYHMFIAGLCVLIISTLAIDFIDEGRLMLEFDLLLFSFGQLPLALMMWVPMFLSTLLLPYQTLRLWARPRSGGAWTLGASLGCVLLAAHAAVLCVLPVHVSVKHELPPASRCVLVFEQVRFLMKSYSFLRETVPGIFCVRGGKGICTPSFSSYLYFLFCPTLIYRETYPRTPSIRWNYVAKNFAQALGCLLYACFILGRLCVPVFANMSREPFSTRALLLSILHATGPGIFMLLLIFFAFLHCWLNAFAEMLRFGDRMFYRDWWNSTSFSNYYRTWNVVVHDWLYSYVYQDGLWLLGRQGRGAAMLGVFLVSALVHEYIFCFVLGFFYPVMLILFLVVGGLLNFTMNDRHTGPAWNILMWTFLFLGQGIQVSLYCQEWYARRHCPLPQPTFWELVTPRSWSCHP
Description: This assay measures the activity of ACAT by measuring the ACAT-mediated transfer of tritiated oleic acid from acyl-CoA to cholesterol to give labelled cholesterol oleate. Rat liver microsomes are used as the source of ACAT. Assays are performed in round bottom microtiterplates using a total incubation volume of 50 μL. Each incubation well receives 10 μL assay buffer (0.5M KHPO4, 10 μM dithiothreitol, pH 7.4), 7.5 μL of 40 mg/mL BSA (Bovine Serum Albumin) and 12.5 μg of microsomal protein. The test compound (in sufficient amount to bring the final concentration to from 0.1 to 25 μM), reference compound, or vehicle control is added and the final volume brought to 47 μL. The microtiterplate is then floated on the surface of a 37° C. water bath for fifteen minutes. Incubations are started by the addition of 3 μL ^3 H-acyl CoA (1 μCi/well, final concentration of 10 μM acyl CoA). The plate is then returned to the water bath for 15 minutes. The incubations are then terminated by application of 15 μL from each incubation to individual lanes on a thin layer plate (Silica Gel GF 20×20 cm). Standards are applied to several lanes so that the cholesterol ester band can be identified. After drying, the plates are eluted with 90:10:1 petroleum ether:diethyl ether:acetic acid. The standards are visualized via iodine vapor, and the regions corresponding to cholesterol ester are scraped into 7 mL scintillation vials. 4 mL of scintillant are added to each vial, and the radioactivity quantified. Background count is determined by the boiled controls. Full activity is determined by activity in the presence of vehicle. The percent inhibition is calculated by subtracting the background from both control and test samples, and the test value is calculated as a percentage of the control. For IC50 determinations, the inhibition is plotted against drug does on a log scale and the concentration at which 50% inhibition is obtained is determined.

liver cholesterol esters = assay: In Vivo Assay of Hypolipidemic Agents Using the Hyperlipidemic Hamster; settings: Mesocricetus auratus, 168 h; 50 mpk, oral gavage in corn oil once daily, seven days; 0.5% cholesterol diet; percent reduction versus control; read-out: In Vivo 50 mpk % Redn. L/CE
Description: In Vivo Assay of Hypolipidemic Agents Using the Hyperlipidemic Hamster
Hamsters are separated into groups of six and given a control cholesterol diet (Purina Chow #5001 containing 0.5% cholesterol) for seven days. Diet consumption is monitored to determine dietary cholesterol exposure in the face of test compounds. The animals are dosed with the test compound once daily beginning with the initiation of diet. Dosing is by oral gavage of 0.2 mL of corn oil alone (control group) or solution (or suspension) of test compound in corn oil. All animals moribund or in poor physical condition are euthanized. After seven days, the animals are anesthetized by IM injection of ketamine and sacrificed by decapitation. Blood is collected into vacutainer tubes containing EDTA for plasma lipid analysis and the liver excised for tissue lipid analysis. Data is reported as percent reduction of lipid versus control.

| Compound | inhibition at 10 µM (ACAT) [%] | IC50 (ACAT) [µM] | change in vivo at 50 mg/kg (liver cholesterol esters) [%] |
| --- | --- | --- | --- |
| CCCCCCCC/C=C\CCCCCCCC(=O)NC(CC1CCCCC1)c1ccccc1 (centres unmarked) | 92 | 0.18 | – |
| CCCCCCCC/C=C\CCCCCCCC(=O)NC(Cc1ccccc1)C1CCCCC1 (centres unmarked) | 90 | 0.17 | 0 |
| CCCCCCCC/C=C\CCCCCCCC(=O)NC(CN1CCCCC1)c1ccccc1 (centres unmarked) | 94 | 1.2 | -12 |
| CCCCCCCC/C=C\CCCCCCCC(=O)NC(CN1CCN(C)CC1)c1ccccc1 (centres unmarked) | 98 | 0.3 | -55 |
| CCCCCCCC/C=C\CCCCCCCC(=O)NC(CN1CCC(=NO)CC1)c1ccccc1 (centres unmarked) | 100 | 0.03 | -21 |
| CCCCCC/C=C\CCCCCCCC(=O)NC(CN1CCN(C)CC1)c1ccccc1 (centres unmarked) | 97 | 0.16 | -37 |
| CCCCCCCC/C=C\CCCCCCCC(=O)NC(CN1CCC(O)CC1)c1ccccc1 (centres unmarked) | 98 | 0.34 | -25 |
| CCCCCCCC/C=C\CCCCCCCC(=O)NC(CN1CCN(C(=O)OC(C)(C)C)CC1)c1ccccc1 (centres unmarked) | 100 | 0.06 | -22 |
| CCCCCCCC/C=C\CCCCCCCC(=O)NC(CN1CCC(OC)CC1)c1ccccc1 (centres unmarked) | 93 | 0.15 | -24 |
| CCCCCCCC/C=C\CCCCCCCC(=O)NC(CN1CCNCC1)c1ccccc1 (centres unmarked) | 64 | – | -54 |
| CCCCCCCC/C=C\CCCCCCCC(=O)NC(CN1CCC(NC(=O)C(F)(F)F)CC1)c1ccccc1 (centres unmarked) | 90 | 0.8 | 0 |
| CCCCCCCC/C=C\CCCCCCCC(=O)NC(CN1CCC(N)CC1)c1ccccc1 (centres unmarked) | -90 | – | -59 |
| O=C(NC(CN1CCCCC1)c1ccccc1)C(c1ccccc1)c1ccccc1 (centres unmarked) | 64 | – | 0 |
| CC(=O)OC1CCN(CC(NC(=O)C(c2ccccc2)c2ccccc2)c2ccccc2)CC1 (centres unmarked) | 59 | – | -25 |
| CCCCCCCCCCCCCCCCCC(=O)NC(CN1CCN(C)CC1)c1ccccc1 (centres unmarked) | 90 | 0.5 | -25 |
| CCCCCCCCCCCCCCCC(=O)NC(CN1CCN(C)CC1)c1ccccc1 (centres unmarked) | 87 | 1.2 | -60 |
| CCCCCCCCCCCCC(C)(C)C(=O)NC(CN1CCN(C)CC1)c1ccccc1 (centres unmarked) | 95 | 0.29 | -44 |
| CCCCCCCCCCCCCCC(C)(C)C(=O)NC(CN1CCN(C)CC1)c1ccccc1 (centres unmarked) | 97 | 1.1 | -40 |
| CCCCCCCCCCCCCCCC(=O)NC(C(=O)N1CCN(C)CC1)c1ccccc1 (centres unmarked) | 95 | 1.8 | -17 |

Second part, led by results:

| inhibition at 10 µM (ACAT) [%] | IC50 (ACAT) [µM] | Compound | change in vivo at 50 mg/kg (liver cholesterol esters) [%] |
| --- | --- | --- | --- |
| 99 | 0.3 | CCCCCCCC/C=C\CCCCCCCC(=O)NC(CN1CCOCC1)c1ccccc1 (centres unmarked) | -21 |
| 93 | 0.01 | CCCCCCCC/C=C\CCCCCCCC(=O)NC(CN1CCC2(CC1)OCCO2)c1ccccc1 (centres unmarked) | -35 |
| 100 | 0.18 | CCCCCCCC/C=C\CCCCCCCC(=O)NC(CN1CCC(=O)CC1)c1ccccc1 (centres unmarked) | – |
| 93 | 0.5 | CCCCCCCC/C=C\CCCCCCCC(=O)NC(CN1CCC(OC)(OC)CC1)c1ccccc1 (centres unmarked) | -18 |
| 59 | – | CCCCCCCC/C=C\CCCCCCCC(=O)NC(CN1CCC2(CCCC2)CC1)c1ccccc1 (centres unmarked) | 0 |
| 94 | 3 | O=C(NC(CN1CCOCC1)c1ccccc1)C(c1ccccc1)c1ccccc1 (centres unmarked) | -15 |
| 71 | 4.5 | CN1CCN(CC(NC(=O)C(c2ccccc2)c2ccccc2)c2ccccc2)CC1 (centres unmarked) | -39 |
| 94 | 0.3 | O=C(NC(CN1CCC2(CC1)OCCO2)c1ccccc1)C(c1ccccc1)c1ccccc1 (centres unmarked) | -26 |
| 90 | 0.5 | O=C1CCN(CC(NC(=O)C(c2ccccc2)c2ccccc2)c2ccccc2)CC1 (centres unmarked) | 0 |
| 83 | 3 | O=C(NC(CN1CCC(O)CC1)c1ccccc1)C(c1ccccc1)c1ccccc1 (centres unmarked) | -25 |
| 94 | 0.4 | O=C(NC(CN1CCC(=NO)CC1)c1ccccc1)C(c1ccccc1)c1ccccc1 (centres unmarked) | 0 |
| 53 | – | CC(=O)CC(=O)OC1CCN(CC(NC(=O)C(c2ccccc2)c2ccccc2)c2ccccc2)CC1 (centres unmarked) | – |
| 88 | 1 | COC1CCN(CC(NC(=O)C(c2ccccc2)c2ccccc2)c2ccccc2)CC1 (centres unmarked) | -30 |
| 81 | 7 | CCCCCCCCCCCCCC(=O)NC(CN1CCN(C)CC1)c1ccccc1 (centres unmarked) | 0 |
| 58 | – | CCCCCCCCCCCC(=O)NC(CN1CCN(C)CC1)c1ccccc1 (centres unmarked) | 0 |
| 94 | 0.39 | CCCCCCCCCCC(C)(C)C(=O)NC(CN1CCN(C)CC1)c1ccccc1 (centres unmarked) | 0 |
| 99 | 0.16 | CCCCCCCCCCCCCCCC(=O)NC(CN1CCC2(CC1)OCCO2)c1ccccc1 (centres unmarked) | -19 |
| 84 | 5 | O=C(CCCCCCCCCCOc1ccccc1)NC(CN1CCCCC1)c1ccccc1 (centres unmarked) | 0 |
| 80 | 4 | CN1CCN(CC(NC(=O)CCCCCCCCCCOc2ccccc2)c2ccccc2)CC1 (centres unmarked) | 0 |
